Earlier results, collected in patent US20180228837A1, “STABLE IODINE SOLUTIONS WITH MEDICAL APPLICATIONS” (priority 2017, published 2018).
Like-named read-outs stand apart in the source and are kept apart here.

How the values were obtained:
dermal wounds = dermal wounds of rabbits
[1] = tested on: wound chambers and full thickness wounds; settings: rats; injected in one area of the body, healing at distant areas
[2] = tested on: wound chambers and full thickness wounds; settings: mice; injected in one area of the body, healing at distant areas
[3] = tested on: wound chambers and full thickness wounds; settings: pigs; injected in one area of the body, healing at distant areas
wounds = settings: diabetic rats; collagen membrane material
ischemic open wounds = ischemic open wounds in rats; compared with vehicle alone or untreated wounds

Substance: copper complex of a glycyl-L-histidyl-L-lysine peptide [GHK-Cu]
- wound healing (dermal wounds): facilitated wound healing
- systemic enhancement of healing [1]: induce a systemic enhancement of healing
- systemic enhancement of healing [2]: induce a systemic enhancement of healing
- systemic enhancement of healing [3]: induce a systemic enhancement of healing
- wound contraction and epithelization (wounds): faster wound contraction and epithelization
- concentration of metalloproteinases 2 and 9 and of TNF-beta (ischemic open wounds): decreased
- wound healing (ischemic open wounds): healed faster
